One experiment addresses BRD4 domain 1 (Homo sapiens, UniProt O60885). The experiment in a line: Kd determination of inhibitors binding to BRD4 domain 1 (Epic label-free platform). The settings on record: direct binding to immobilized BRD4 domain 1; tripling dilution series from 20µM; about 1hr equilibrium; rounded to whole number; read-out: Epic Kd BRD41. The method, then: (§1) Kd Determination of Inhibitors Binding to BRD4 Domain 1 and Domain 2
(§2) The binding of small molecule inhibitors to either BRD4 domain 1 or domain 2 were determined using the Epic, high-throughput, label-free platform (Corning, Lowell, MA). The Epic instrument incorporates an evanescent waveguide sensor within each well of its proprietary 384-well microplates. Direct binding of inhibitors to BRD4 immobilized onto the microplate well surface can be detected by exposing the waveguide to a broadband light source. The resulting resonant wavelength shift (measured in picometers (pm)) is proportional to the mass bound to the surface. Epic biochemical plates (Corning, Lowell, MA) were activated by adding 15 µL/well of 200 mM EDC and 50 mM Sulfo-NHS (Pierce Thermo Scientific, Rockford, IL) and incubated for 60 minutes at room temperature. Plates were washed three times with MilliQ water and dried by centrifugation (1 minute at 400 rpm). BRD4 immobilization was accomplished by resuspending the protein at a concentration of 150 µg/mL in 20 mM HEPES (pH 7) and adding 10 µL/well. […] Compound/inhibitor binding was determined by calculating difference between the baseline (first read) and second read. The resulting binding response was fitted to a single site binding isotherm in order to determine an equilibrium dissociation constant (Kd).

The target in a further experiment is BRD4 domain 2 (Homo sapiens, UniProt O60885). The experiment in a line: Kd determination of inhibitors binding to BRD4 domain 2 (Epic label-free platform). The settings on record: direct binding to immobilized BRD4 domain 2; tripling dilution series from 20µM; about 1hr equilibrium; rounded to whole number. The procedure: as §1, §2

The record followed here is EP3074389B1, “QUINOLINE DERIVATIVES AS BROMODOMAIN INHIBITORS” (Gilead Sciences, Inc., priority 2013, dated 2015).

As for `Cc1noc(C)c1-c1cc(S(=O)(=O)NC2CCCC2)c2cc(N(C)C)c(=O)[nH]c2c1` [Compound 61, N-cyclopentyl-3-(dimethylamino)-7-(3,5-dimethylisoxazol-4-yl)-2-oxo-1,2-dihydroquinoline-5-sulfonamide], the Kd at BRD4 domain 1 was determined as 1020 nM; at BRD4 domain 2, 645 nM.

With `CNc1cc2c(S(=O)(=O)NC3CCCC3)cc(-c3c(C)noc3C)cc2[nH]c1=O` [Compound 62, N-cyclopentyl-7-(3,5-dimethylisoxazol-4-yl)-3-(methytamino)-2-oxo-1,2-dihydroquinoline-5-sulfonamide], the values for the Kd on BRD4 domain 1 and on BRD4 domain 2 were 850 nM and 526 nM, respectively.

Turning to `COC[C@H]1CCC[C@H]1NS(=O)(=O)c1cc(-c2c(C)noc2C)cc2ncccc12` [Compound 63, 7-(3,5-dimethylisoxazol-4-yl)-N-((1R,2S)-2-(methoxymethyl)cyclopentyl)quinoline-5-sulfonamide], the Kd was found to be 14600 nM at BRD4 domain 1 and 9560 nM on BRD4 domain 2.

As to `Cc1noc(C)c1-c1cc(S(=O)(=O)NC2CCCC2)c2cc(N3CCOC3=O)c(=O)[nH]c2c1` [Compound 64, N-cyclopentyl-7-(3,5-dimethylisoxazol-4-yl)-2-oxo-3-(2-oxooxazolidin-3-yl)-1,2-dihydroquinoline-5-sulfonamide], the results for the Kd at BRD4 domain 1 and on BRD4 domain 2 were 4850 nM and 3210 nM, respectively.

For `Cc1noc(C)c1-c1cc(S(=O)(=O)NC2CCCC2)c2cc(N3CCN(C)CC3)c(=O)[nH]c2c1` [Compound 65, N-cyclopentyl-7-(3,5-dimethylisoxazol-4-yl)-3-(4-methylpiperazin-1-yl)-2-oxo-1,2-dihydroquinoline-5-sulfonamide], the Kd stood at 981 nM on BRD4 domain 1 and 546 nM at BRD4 domain 2.

For `Cc1noc(C)c1-c1cc(S(=O)(=O)NC2CCCC2)c2cc(NC3CCN(C)CC3)c(=O)[nH]c2c1` [Compound 66, N-cyclopentyl-7-(3,5-dimethylisoxazol-4-yl)-3-((1-methylpiperidin-4-yl)amino)-2-oxo-1,2-dihydroquinoline-5-sulfonamide], the figures for the Kd on BRD4 domain 1 and on BRD4 domain 2 were 520 nM and 421 nM, respectively.

On to `Cc1noc(C)c1-c1cc(S(=O)(=O)NC2CCCC2)c2cc(NCc3cccnc3)c(=O)[nH]c2c1` [Compound 67, N-cyclopentyl-7-(3,5-dimethylisoxazol-4-yl)-2-oxo-3-((pyridin-3-ylmethyl)amino)-1,2-dihydroquinoline-5-sulfonamide], for which the Kd at BRD4 domain 1 was determined as 444 nM; on BRD4 domain 2, 404 nM.

Turning to `Cc1noc(C)c1-c1cc(S(=O)(=O)NC2CC2)c2ccc(=O)[nH]c2c1` [Compound 68, N-cyclopropyl-7-(3,5-dimethylisoxazol-4-yl)-2-oxo-1,2-dihydroquinoline-5-sulfonamide], the Kd amounted to 13800 nM on BRD4 domain 1 and 2920 nM on BRD4 domain 2.

Turning to `Cc1noc(C)c1-c1cc(S(=O)(=O)NC2CCCC2)c2cc(C(N)=O)c(=O)[nH]c2c1` [Compound 69, 5-(N-cyclopentylsulfamoyl) -7-(3,5-dimethylisoxazol-4-yl)-2-oxo-1,2-dihydroquinoline-3-carboxamide], the Kd at BRD4 domain 1 was 7270 nM; at BRD4 domain 2, 1190 nM.

As for `Cc1noc(C)c1-c1cc(S(=O)(=O)NC2CCCC2)c2cc(C(=O)O)c(=O)[nH]c2c1` [Compound 70, 5-(N-cyclopentylsulfamoyl) -7-(3,5-dimethylisoxazol-4-yl)-2-oxo-1,2-dihydroquinoline-3-carboxylic acid], the Kd was 8230 nM at BRD4 domain 1 and 1960 nM at BRD4 domain 2.

As for `Cc1noc(C)c1-c1cc(S(=O)(=O)N[C@@H]2CCC[C@H]2C(=O)N2CCN(C)CC2)c2cccnc2c1` [Compound 71, 7-(3,5-dimethylisoxazol-4-yl)-N-((1R,2R)-2-(4-methylpiperazine-1-carbonyl)cyclopentyl) quinoline-5-sulfonamide], the Kd on BRD4 domain 1 turned out to be 4890 nM; at BRD4 domain 2, 4150 nM.

As to `Cc1noc(C)c1-c1cc(S(=O)(=O)N[C@@H]2CCC[C@H]2C(=O)NCCN)c2cccnc2c1` [Compound 72, (1R,2R)-N-(2-aminoethyl)-2-(7-(3,5-dimethylisoxazol-4-yl)quinoline-5-sulfonamido)cyclopen tanecarboxamide], the Kd at BRD4 domain 1 came to 1440 nM; on BRD4 domain 2, 2330 nM.

Regarding `CC(=O)NCCNC(=O)[C@@H]1CCC[C@H]1NS(=O)(=O)c1cc(-c2c(C)noc2C)cc2ncccc12` [Compound 73, (1R,2R)-N-(2-acetamidoethyl)-2-(7-(3,5-dimethylisoxazol-4-yl)quinoline-5-sulfonamido)cyclopen tanecarboxamide], the values for the Kd at BRD4 domain 1 and on BRD4 domain 2 were > 20000 nM and 16700 nM, respectively.

As for `Cc1noc(C)c1-c1cc(S(=O)(=O)NCCN)c2cccnc2c1` [Compound 74, N-(2-aminoethyl)-7-(3,5-dimethylisoxazol-4-yl)quinoline-5-sulfonamide], the dissociation constant (Kd) on BRD4 domain 1 is 14100 nM; at BRD4 domain 2, 17500 nM.

Take `Cc1noc(C)c1-c1cc(S(=O)(=O)NC2CCCC2)c2cc(C(=O)N(C)C)c(=O)[nH]c2c1` [Compound 75, 5-(N-cyclopentylsulfamoyl) -7-(3,5-dimethylisoxazol-4-yl)-N,N-dimethyl-2-oxo-1,2-dihydroquinoline-3 - carboxamide]: the figures for the Kd at BRD4 domain 1 and at BRD4 domain 2 were 10700 nM and 8940 nM, respectively.

On to `Cc1noc(C)c1-c1cc(S(=O)(=O)NC2CCCC2)c2cc(NCC3CC3)c(=O)[nH]c2c1` [Compound 76, N-cyclopentyl-3-((cyclopropylmethyl)amino)-7-(3,5-dimethylisoxazol-4-yl)-2-oxo-1,2-dihydroquinoline-5-sulfonamide], for which the Kd was found to be 416 nM at BRD4 domain 1 and 497 nM on BRD4 domain 2.

For `Cc1noc(C)c1-c1cc(S(=O)(=O)NC2CCCC2)c2cc(NC(C)C)c(=O)[nH]c2c1` [Compound 77, N-cyclopentyl-7-(3,5-dimethylisoxazol-4-yl)-3-(isopropylamino)-2-oxo-1,2-dihydroquinoline-5-sulfonamide], the Kd was found to be 896 nM at BRD4 domain 1 and 610 nM at BRD4 domain 2.

With `Cc1noc(C)c1-c1cc(S(=O)(=O)NC2CCCC2)c2cc(NCCN)c(=O)[nH]c2c1` [Compound 78, 3-((2-aminoethyl)amino)-N-cyclopentyl-7-(3,5-dimethylisoxazol-4-yl)-2-oxo-1,2-dihydroquinoline-5-sulfonamide], the Kd at BRD4 domain 1 was 744 nM; on BRD4 domain 2, 392 nM.

`Cc1noc(C)c1-c1cc(S(=O)(=O)NC2CCCC2)c2cc(NCC(F)F)c(=O)[nH]c2c1` [Compound 79, N-cyclopentyl-3-((2,2-difluoroethyl)amino)-7-(3,5-dimethylisoxazol-4-yl)-2-oxo-1,2-dihydroquinoline-5-sulfonamide]: the Kd was determined as 1350 nM on BRD4 domain 1 and 607 nM on BRD4 domain 2.

Take `Cc1noc(C)c1-c1cc(S(=O)(=O)NC2CC2)c2ccc(N3CCNCC3)nc2c1` [Compound 80, N-cyclopropyl-7-(3,5-dimethylisoxazol-4-yl)-2-(piperazin-1-yl)quinoline-5-sulfonamide]: the figures for the Kd at BRD4 domain 1 and at BRD4 domain 2 were 1730 nM and 1390 nM, respectively.

With `Cc1noc(C)c1-c1cc(S(=O)(=O)N[C@@H](CC(C)(C)C)C(=O)N2CCNCC2)c2cccnc2c1` [Compound 81, (S)-N-(4,4-dimethyl-1-oxo-1-(piperazin-1-yl)pentan-2-yl)-7-(3,5-dimethylisoxazol-4-yl)quinoline-5-sulfonamide], the Kd is 13700 nM on BRD4 domain 1 and > 20000 nM on BRD4 domain 2.

Turning to `Cc1noc(C)c1-c1cc(S(=O)(=O)N[C@@H]2CCC[C@H]2O)c2ccc(=O)[nH]c2c1` [Compound 82, 7-(3,5-dimethylisoxazol-4-yl)-N-((1R,2R)-2-hydroxycyclopentyl)-2-oxo-1,2-dihydroquinoline-5-sulfonamide], the Kd on BRD4 domain 1 was found to be 1920 nM; on BRD4 domain 2, 1900 nM.

Turning to `Cc1noc(C)c1-c1cc(S(=O)(=O)NC2CC2(C)C)c2cccnc2c1` (stereo not drawn) [Compound 83], the results for the Kd at BRD4 domain 1 and at BRD4 domain 2 were 16700 nM and 16600 nM, respectively.

`Cc1noc(C)c1-c1cc(S(=O)(=O)NC2(C(F)(F)F)CC2)c2cccnc2c1` [Compound 84, 7-(3,5-dimethylisoxazol-4-yl)-N-(1-(trifluoromethyl)cyclopropyl)quinoline-5-sulfonamide]: the values for the Kd at BRD4 domain 1 and at BRD4 domain 2 were 2000 nM and 18200 nM, respectively.

Turning to `COCCNc1cc2c(S(=O)(=O)N[C@@H]3CCC[C@H]3O)cc(-c3c(C)noc3C)cc2[nH]c1=O` [Compound 85, 7-(3,5-dimethylisoxazol-4-yl)-N-((1R,2R)-2-hydroxycyclopentyl)-3-((2-methoxyethyl)amino)-2-oxo-1,2-dihydroquinoline-5-sulfonamide], the Kd turned out to be 483 nM at BRD4 domain 1 and 429 nM at BRD4 domain 2.

Take `Cc1noc(C)c1-c1cc(S(=O)(=O)NC2CCCC2)c2nccnc2c1` [Compound 86, N-cyclopentyl-7-(3,5-dimethylisoxazol-4-yl)quinoxaline-5-sulfonamide]: the Kd was 3480 nM on BRD4 domain 1 and 2460 nM on BRD4 domain 2.

In the case of `Cc1noc(C)c1-c1cc(S(=O)(=O)NC2CCCC2)c2ncc(=O)[nH]c2c1` [Compound 87, N-cyclopentyl-7-(3,5-dimethylisoxazol-4-yl)-2-oxo-1,2-dihydroquinoxaline-5-sulfonamide], the Kd was 2200 nM on BRD4 domain 1 and 1340 nM at BRD4 domain 2.
